The results in this text go back to the supplement of paper PMC11061612.

Experiment [1] deals with SCC-15 (Oral Cavity Carcinoma). In words: Bliss excess, mean over the matrix (fraction); higher = more synergy. The procedure, abridged: (§1)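 Bliss excess equals the observed combination effect minus the expected value EA + EB − EA·EB, where EA and EB are the effects of each agent alone. Combination Emax is the second-highest inhibition within the matrix. Inhibition was scaled from CellTiter-Glo 2.0 luminescence, with 0 set by vehicle wells and 1 by blank wells, after 72 hours of two-drug dosing of cells plated in 1536-well plates.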

Experiment [2] has as its system PWR-1E (Non-Cancerous). Described as above. In short, it runs like this:
as §1

In experiment [3] the test system is HSC-4 (Oral Cavity Carcinoma). The experiment is described as above. In short, it runs like this:
as §1

In experiment [4] the test system is HOP-62 (Lung Adenocarcinoma). Described as above. The procedure, abridged: as §1
Experiment [5] concerns VA-ES-BJ (Other Solid Carcinomas). The description is as above. The procedure, abridged: as §1
The subject of experiment [6] is OE19 (Esophageal Adenocarcinoma). The experiment is described as above. The procedure, abridged:
as §1

Experiment [7] concerns TE-1 (Esophageal Squamous Cell Carcinoma). Described as above. In short, it runs like this: as §1
Experiment [8] concerns KMOE-2 (Acute Myeloid Leukemia). The experiment is described as above. The procedure, abridged:
as §1

In experiment [9] the test system is NCI-H1915 (Non-Small Cell Lung Carcinoma). Described as above. The procedure, abridged: as §1
The test system of experiment [10] is HGC-27 (Gastric Carcinoma). The description is as above. The procedure, abridged: as §1
The subject of experiment [11] is JVM-3 (B-Cell Non-Hodgkin's Lymphoma). The description is as above. In short, it runs like this:
as §1

Experiment [12] has as its system NUGC-3 (Gastric Carcinoma). The description is as above. The procedure, abridged: as §1
Experiment [13] has as its system OSC-20 (Oral Cavity Carcinoma). The description is as above. The procedure, abridged:
as §1

The subject of experiment [14] is SCC-15 (Oral Cavity Carcinoma). The experiment can be described thus: combination Emax (second highest fraction inhibited in the dose matrix, 72 h); higher = more inhibition; extreme values may be limits of the assay. The procedure, abridged:
as §1

In experiment [15] the test system is PWR-1E (Non-Cancerous). The description is as above. In short, it runs like this:
as §1

For experiment [16], the system named is HSC-4 (Oral Cavity Carcinoma). The description is as above. The procedure, abridged:
as §1

In experiment [17] the test system is OE19 (Esophageal Adenocarcinoma). Described as above. In short, it runs like this: as §1
Experiment [18] relates to NCI-H1915 (Non-Small Cell Lung Carcinoma). The experiment is described as above. The procedure, abridged: as §1
Experiment [19] concerns SU8686 (Pancreatic Carcinoma). Described as above. The procedure, abridged: as §1
For experiment [20], the system named is OSC-20 (Oral Cavity Carcinoma). Described as above. In short, it runs like this:
as §1

Each structure is given as a SMILES string.

As to `Cc1cc2ncnn2cc1Nc1ncc2c(n1)n(C1CCOCC1)c(=O)n2C` [AZD7648] + CN(C)CCCOc1ccc(-c2ccc3ncc4c(c3c2)n(C2CCOCC2)c(=O)n4C)cn1 [AZD0156] (first compound max 10 µM, 7x7, partner max 1 µM), the Bliss excess in experiment [1] was 0.0215; in the experiment on PWR-1E (Non-Cancerous) [2] it was 0.0532; in experiment [3] it was -0.0154; in [4] it was -0.0173; in [5], 0.0248; in experiment [6] it was 0.0583. Moreover, the Bliss excess was -0.051 in [7]; 0.0226 in [8]; -0.0208 in experiment [9]; 0.0101 in experiment [10]; -0.0297 in [11]; -0.0262 in [12]. The Bliss excess in experiment [13] was -0.0082. Moreover, the “combination Emax” value in [14] was determined as 0.292; with PWR-1E (Non-Cancerous) [15], 0.363; in experiment [16] it was 0.112; in experiment [17], 0.363; in experiment [18] it was 0.294; in experiment [19], 0.143. For the same molecule, the “combination Emax” value in experiment [20] worked out at 0.224.
Regarding `Cc1cc2ncnn2cc1Nc1ncc2c(n1)n(C1CCOCC1)c(=O)n2C` [AZD7648] + C[C@@H]1COCCN1C2=NC(=NC(=C2)C3(CC3)[S@](=N)(=O)C)C4=C5C=CNC5=NC=C4 [AZD6738] (first compound max 10 µM, 7x7, partner max 10 µM), the Bliss excess was 0.0975 in experiment [1]; -0.109 in the experiment with PWR-1E (Non-Cancerous) [2]; -0.0165 in experiment [3]; -0.0009 in experiment [4]; -0.0099 in experiment [5]; -0.0607 in [6]. Besides, the Bliss excess in experiment [7] was -0.0086; in experiment [8], 0.0035; in [9], -0.0216; in [10] it was -0.0265; in experiment [11], 0.0108; in experiment [12], -0.0657. Also, in experiment [13], the Bliss excess came to 0.0065. The “combination Emax” value in [14] is 0.565; in the experiment on PWR-1E (Non-Cancerous) [15] it was 0.769; in [16], 0.584; in experiment [17], 0.813; in experiment [18], 0.364; in experiment [19] it was 0.232. The “combination Emax” value in [20] was found to be 0.41.
Take `Cc1cc2ncnn2cc1Nc1ncc2c(n1)n(C1CCOCC1)c(=O)n2C` [AZD7648] + O=C(c1cc(Cc2n[nH]c(=O)c3ccccc23)ccc1F)N1CCN(C(=O)C2CC2)CC1 [Olaparib] (first compound max 10 µM, 7x7, partner max 10 µM): the Bliss excess in experiment [1] is -0.0408; in the experiment with PWR-1E (Non-Cancerous) [2], -0.0005; in [3] it was -0.0448; in experiment [4] it was -0.0528; in experiment [5], -0.0416; in [6] it was -0.0097. The Bliss excess was -0.0298 in experiment [7]; -0.0066 in experiment [8]; -0.0215 in [9]; -0.0092 in experiment [10]; -0.0053 in [11]; -0.0175 in experiment [12]. The Bliss excess in [13] was 0.0194. Moreover, the “combination Emax” value in experiment [14] turned out to be 0.14; in the experiment with PWR-1E (Non-Cancerous) [15], 0.28; in [16] it was 0.26; in [17] it was 0.289; in experiment [18], 0.372; in [19], 0.0508. In experiment [20], the “combination Emax” value turned out to be 0.265.
On to `COc1cc2c(cc1OCCCCCOc1cc3c(cc1OC)C(=O)N1C=C(C)C[C@H]1C=N3)N=C[C@@H]1CC(C)=CN1C2=O` [SG3199] + O=C(c1cc(Cc2n[nH]c(=O)c3ccccc23)ccc1F)N1CCN(C(=O)C2CC2)CC1 [Olaparib] (first compound max 0.001 µM, 7x7, partner max 10 µM), for which the Bliss excess in [1] is -0.03; with PWR-1E (Non-Cancerous) [2] it was -0.0258; in [3], -0.046; in experiment [4] it was -0.0276; in experiment [5], 0.0099; in [6] it was 0.0098. The Bliss excess in experiment [7] was -0.0286; in experiment [8], -0.0283; in experiment [9], -0.0248; in experiment [10], 0.0358; in experiment [11], -0.0278; in [12] it was -0.0332. Further, the Bliss excess in [13] was -0.0319. Also, the “combination Emax” value was 0.0778 in experiment [14]; 0.0981 with PWR-1E (Non-Cancerous) [15]; 0.212 in [16]; 0.216 in experiment [17]; 0.353 in experiment [18]; 0.0347 in [19]. The “combination Emax” value in experiment [20] worked out at 0.145.
